# Like-named read-outs stand apart in the source and are kept apart here.
# How the values were obtained:
# midbrain p-α-s = experiment: Midbrain p-α-s protein expression in MPTP Parkinson's disease model mouse (western-blotting); format: in vivo; conditions: midbrain total protein, GAPDH internal reference, gavage 21 consecutive days after MPTP modeling
# Procedure: (§1) Neurotoxins can be used to establish PD animal models. Currently, 1-methyl-4-phenyl-1,2,3,6-tetrahydropyridine (MPTP) is the sole synthetic toxin which is recognized to induce PD symptoms in human and non-human primates and in mice. Using MPTP subacute modeling method, C57BL/6J male mice were intraperitoneally injected with MPTP 30 mg/kg, once a day for 5 consecutive days. The experiment animals were divided into blank control group, MPTP model group, and compound treatment group. For the […] compound treatment group, the compound was administrated by gavage for 21 consecutive days after the completion of modeling; for the MPTP model group, the normal saline was administrated by gavage for 21 consecutive days after the completion of modeling; and for the blank control group, the normal saline was first intraperitoneally injected for 5 days, and then administrated by gavage for 21 days.
# (§2) Alpha-synuclein is an “unfolded protein” in its natural state. It exists in a monomeric form, and participates in the physiological functions such as the release of neurotransmitters, the establishment of synaptic junctions, and the regulation of synaptic plasticity. Under pathological conditions, more than 90% of alpha-synuclein is phosphorylated at serine of position 129 and converted into phosphorylated alpha-synuclein (p-α-s), thereby forming Lewy bodies. The formation of Lewy bodies is one of the main pathological manifestations and pathological mechanisms for Parkinson's disease, and plays an important role in the formation and development of PD. The detection of the p-α-s expression in the midbrain and substantia nigra of PD model mice can evaluate the neuroprotective activity of the compound.
# (§3) Half of experiment mice in each group were taken to extract the total midbrain protein, and the change in the midbrain P-α-s protein expression was determined by western-blotting using GAPDH as the internal reference. The experiment included blank control group, MPTP model group, positive control group (caffeic acid phenethyl ester, CAPE), prototype control group (styryl sulfone compounds 3B, 3C, 3D, and 3G, whose structures are shown as above), and target compound group.
# [1] = tested on: fetal rat midbrain neurons; experiment: Survival rate of primary midbrain neurons induced by MPP+ (CCK-8); format: cell-based; conditions: for viability at 5 µM / viability at 10 µM / viability at 20 µM: Rattus norvegicus, Neuron, read-out: Survival rate (%); for survival rate compared with the styryl sulfone prototype compounds: no concentration stated
# Text: The main pathological feature of Parkinson's disease (PD) lies in the degeneration and loss of dopaminergic neuron in the substantia nigra-striatum of the midbrain. 1-Methyl-4-phenylpyridinium (MPP+) has a high affinity to dopamine carriers and a selective toxicity on dopaminergic neurons. Thus, MPP+ is one of the most ideal classic neurotoxins for establishing PD cell models. The primary cell culture of fetal rat midbrain is often used to establish PD cell models in recent years. Although it is more cumbersome and has higher technical requirements than cell line culture, it is closer to the pathological characteristics of PD. Thus, a PD cell model is established using neurons from the primary cell culture of fetal rat midbrain under MPP+ induction, to evaluate the protective effect of target compounds on the model neurons.
# The midbrain was separated from a fetal rat of a 15-day-pregnant SD rat and cut into pieces, then subjected to trypsin digestion, pipetting, screen filtration, and resuspension steps, and inoculated in a 24-well cell culture plate pre-coated with poly-D-lysine. 12 hours after culture, cytarabine was added to inhibit the growth of glial cells. On the 5th day of neuron growth, the toxin MPP+ can be added to make a PD cell model. When detecting the activity of a target compound, the target compound was pre-incubated with midbrain neurons for 3 h, then MPP+ was added, and after 48 h co-incubation the neuronal viability was detected by CCK-8 method and the neuronal survival rate was calculated to evaluate the inhibitory activity of the target compound on the midbrain neuronal PD damage. The experiment included blank control group, MPP+ model group, positive control group (caffeic acid phenethyl ester, CAPE), prototype control group (styryl sulfone compounds 3B, 3C, 3D, and 3G), and target compound group (prepared according to Examples 1-22 in the invention).
# substantia nigra p-α-s = experiment: Substantia nigra p-α-s protein expression in MPTP Parkinson's disease model mouse (immunofluorescence); format: in vivo; conditions: percentage of mean intensity of blank control group, gavage 21 days after MPTP modeling
# Procedure: as §1, §2
# Half of experiment mice in each group were taken to separate the midbrain after perfusion and fixation. The tissue was trimmed, and the substantia nigra-striatum area was taken to prepare paraffin sections. The p-α-s immunofluorescence staining was performed in the brain sections of mice in each group. […] The experiment included blank control group, MPTP model group, positive control group (caffeic acid phenethyl ester, CAPE), prototype control group (styryl sulfone compounds 3B, 3C, 3D, and 3G, whose structures are shown as above), and target compound group.
# substantia nigra CD11b = experiment: Number of substantia nigra microglial cells with CD11b positive expression in MPTP Parkinson's disease model mouse (immunohistochemistry); format: in vivo; conditions: for Positive cell number (microglial cells with CD11b positive expression): substantia nigra, MPTP Parkinson's disease model mouse, immunohistochemistry
# Procedure: as §1
# Neuron-glial cell network homeostasis disorder is an important factor for the selective and progressive death of substantia nigra dopaminergic neurons in PD. In the neurotoxic effect of MPTP, the excessive activations of microglial cells and astrocytes produce a variety of inflammatory cytokines and reactive oxygen species (ROS). These inflammatory factors and ROS amplify their respective toxicities and mediate malignant feedback loop, causing a cascade inflammation response and aggravating the pathological process of PD. CD11b and GFAP are the marker proteins for activations of microglial cells and astrocytes, respectively. Therefore, the effect of the target compounds on the activations of the microglial cells and astrocytes in the substantia nigra, hippocampus, and midbrain areas of MPTP-induced PD mice can be investigated, to explore the mechanism of the anti-PD effect of the target compounds by inhibiting the neuroinflammation.
# Half of experiment mice in each group were taken to separate the midbrain after perfusion and fixation. The tissue was trimmed, and the substantia nigra area was taken to prepare paraffin sections. The CD11b immunohistochemical staining was performed for the statistics of the change in the number of microglial cells with CD11b positive expression. The experiment included blank control group, MPTP model group, positive control group (caffeic acid phenethyl ester, CAPE), prototype control group (styryl sulfone compounds 3B, 3C, 3D, and 3G, whose structures are shown as above), and target compound group.
# midbrain TH = experiment: Midbrain TH expression in MPTP Parkinson's disease model mouse (western-blotting); format: in vivo; conditions: midbrain total protein, GAPDH internal reference, gavage 21 days after MPTP modeling
# Procedure: as §1
# The main cause of PD lies in the pathological changes in the substantia nigra-striatum projection system of the brain and the progressive degeneration and loss of dopaminergic neurons. Tyrosine hydroxylase (TH) is the first enzyme in the biosynthesis of catecholamine neurotransmitters, as well as the first rate-limiting enzyme in the dopamine synthesis. It plays an important role in the synthesis and metabolism of the neurotransmitter DA. The TH in PD animal models and patients has a wide range of abnormal changes, from the gene expression to the enzyme protein content and enzyme activity. The detection of the TH expression in the midbrain and substantia nigra of PD model mice can be used to evaluate the neuroprotective activity of the compound.
# as §3, with “TH” for “P-α-s protein expression”
# [2] = 5 μM, 3 h pre-incubation, 48 h with MPP+
# [3] = 10 μM, 3 h pre-incubation, 48 h with MPP+
# [4] = 20 μM, 3 h pre-incubation, 48 h with MPP+
Compound,Expression (p-α-s/GAPDH) (midbrain p-α-s),"viability at 5 µM [1, 2] [%]","viability at 10 µM [1, 3] [%]","viability at 20 µM [1, 4] [%]",survival rate compared with the styryl sulfone prototype compounds [1],Expression (Immunofluorescence intensity %) (substantia nigra p-α-s) [%],number of substantia nigra microglial cells with CD11b positive expression compared with the styryl sulfone prototype compounds (substantia nigra CD11b),Positive cell number (microglial cells with CD11b positive expression) (substantia nigra CD11b),Expression (TH/GAPDH) (midbrain TH),viability at 5 µM ([1]; 48 h) [%],viability at 10 µM ([1]; 48 h) [%],viability at 20 µM ([1]; 48 h) [%],"Survival rate (%) [1, 2] [%]","Survival rate (%) [1, 3] [%]","Survival rate (%) [1, 4] [%]"
"CCN(CC)C(=O)Oc1ccc(/C=C/S(=O)(=O)Cc2ccc(C(F)(F)F)cc2)cc1OC(=O)N(CC)CC [Compound B1-1, (E)-4-{2-[(4-trifluoromethylphenyl)mesyl]ethenyl}-1,2-phenylenebis(diethylcarbamate)]",0.23 ± 0.12,78.5 ± 4.12,89.7 ± 2.89,93.8 ± 1.59,significantly increased,82.54 ± 9.34,significantly lower,32 ± 4,0.92 ± 0.02,,,,,,
"CCN(CC)C(=O)Oc1ccc(/C=C/S(=O)(=O)Cc2ccc(Cl)cc2)cc1OC(=O)N(CC)CC [Compound D1-1, (E)-4-{2-[(4-chlorophenyl)mesyl]ethenyl}-1,2-phenylenebis(diethylcarbamate)]",0.42 ± 0.10,80.3 ± 2.67,94.6 ± 3.76,98 ± 1.32,significantly increased,42.52 ± 5.43,significantly lower,15 ± 3,1.27 ± 0.05,,,,,,
"Cc1ccc(S(=O)(=O)Oc2ccc(CS(=O)(=O)/C=C/c3ccc(OS(=O)(=O)c4ccc(C)cc4)c(OC(=O)N(C)S(=O)(=O)c4ccc(C)cc4)c3)cc2)cc1 [Compound S6-6, (E)-2-(N-methyl-N-p-tosylcarbamoyloxy)-4-{2-[(4-p-tosyloxyphenyl)mesyl]ethenyl}phenyl p-toluenesulfonate]",0.28 ± 0.06,,,,,72.57 ± 6.63,,19 ± 2,1.07 ± 0.06,72 ± 2.47,83.2 ± 4.07,91.7 ± 3.18,,,
"CNC(=O)Oc1ccc(/C=C/S(=O)(=O)CC(Cl)c2ccc(Cl)c([N+](=O)[O-])c2)cc1O (stereo not drawn) [Compound E2-2, (E)-4-{2-[2-chloro-2-(4-chloro-3-nitrophenyl)ethylsulfonyl]ethenyl}-2-hydroxyphenyl-N-methylcarbamate]",0.45 ± 0.07,,,,,128.26 ± 11.62,,40 ± 5,0.97 ± 0.03,58.1 ± 4.27,69.3 ± 2.33,86.1 ± 2.06,,,
"O=C(NC(=O)C(F)(F)F)Oc1ccc(/C=C/S(=O)(=O)C(F)(F)c2ccc(Oc3ccccn3)cc2)cc1OC(=O)C(F)(F)C(F)(F)F [Compound L1-4, (E)-5-{2-[(4-[pyridin-2-yl-oxy]phenyl)difluoromethylsulfonyl]ethenyl}-2-[N-(2,2,2-trifluoroacetyl)carbamoyloxy]phenyl-2,2,3,3,3-pentafluoropropionate]",0.38 ± 0.08,67.5 ± 3.52,75.4 ± 2.59,86.2 ± 1.86,,58.37 ± 6.11,,35 ± 2,0.79 ± 0.04,,,,,,
"Cc1ccc(N2CCN(C(=O)Oc3ccc(/C=C/S(=O)(=O)CCCC(c4ccc(OC(=O)CN(C)C)cc4)N(C)C)cc3OC(=O)N(C)c3ccccc3)CC2)cc1 (stereo not drawn) [Compound P1-1, (E)-4-{2-[4-(dimethylamino)-4-(4-(N,N-dimethylglycyloxy)phenyl)butylsulfonyl]ethenyl}-2-(N-methyl-N-phenylcarbamoyloxy)phenyl-4-(p-methylphenyl)piperazine-1-carboxylate]",0.48 ± 0.12,,,,,182.99 ± 12.70,,26 ± 3,0.88 ± 0.04,75.3 ± 3.12,86.6 ± 2.39,92.2 ± 3.05,,,
"CCOC(CS(=O)(=O)/C=C/c1ccc(OC(C)=O)c(OC(=O)Nc2ccc(NC)cc2)c1)C(OCC)c1ccc(OCc2ccccc2)c(O)c1 (stereo not drawn) [Compound H2-4, (E)-4-{2-[3-(4-benzyloxy-3-hydroxyphenyl)-2,3-diethoxypropyl]sulfonylethenyl}-2-[N-(4-methylaminophenyl)carbamoyloxy]phenyl acetate]",0.53 ± 0.13,69 ± 4.31,81.5 ± 3.24,89.4 ± 1.65,,136.53 ± 8.94,,29 ± 4,1.02 ± 0.04,,,,,,
"(E)-2-[(methylamino)methoxy]-4-{2-[1-(4′-nitro-[1,1′-biphenyl]-4-yl)ethylsulfonyl]ethenyl}phenylcarbamate [Compound M1-3]",0.42 ± 0.05,,,,,79.17 ± 5.10,,33 ± 5,0.84 ± 0.06,,,,76.51 ± 4.82,85.29 ± 2.97,93.26 ± 2.26

# Reference: patent US12410124B2 (priority 2019, dated 2025)
